Assay results taken from paper PMC4521712, “Enhanced Bacterial α(2,6)-Sialyltransferase Reaction through an Inhibition of Its Inherent Sialidase Activity by Dephosphorylation of Cytidine-5'-Monophosphate” (PLoS ONE, 2015).

Assays:
Type in all cases: biochemical
Pd-ST [1] = molecular target: T1, Pd-ST (Photobacterium damselae, UniProt O66375); test: HPLC of AA-lactose released from AA-6'-sialyllactose (sialidase activity); conditions: 1 mM, 50 μM AA-6'-sialyllactose, 100 mM sodium phosphate pH 6.0, 37°C, 2 h
T1 construct: gene bst; residues 16-497 with catalytic domain, pColdII N-terminal His-tag (kept), codon-optimised gene, E. coli BL21, Ni-NTA
T1 sequence (O66375 16-497): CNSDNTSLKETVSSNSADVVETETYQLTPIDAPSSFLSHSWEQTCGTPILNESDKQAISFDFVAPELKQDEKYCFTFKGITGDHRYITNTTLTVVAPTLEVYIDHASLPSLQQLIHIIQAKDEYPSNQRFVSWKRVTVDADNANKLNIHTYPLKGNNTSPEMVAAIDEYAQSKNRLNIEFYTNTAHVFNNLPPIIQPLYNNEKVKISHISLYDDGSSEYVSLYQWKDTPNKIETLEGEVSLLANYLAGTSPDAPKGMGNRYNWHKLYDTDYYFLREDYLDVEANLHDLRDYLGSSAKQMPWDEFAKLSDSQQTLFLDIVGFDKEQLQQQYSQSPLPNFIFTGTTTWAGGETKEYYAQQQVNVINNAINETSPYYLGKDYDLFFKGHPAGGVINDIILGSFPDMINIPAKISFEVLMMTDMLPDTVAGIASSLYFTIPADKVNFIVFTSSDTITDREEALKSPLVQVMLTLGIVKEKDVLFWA

P224-ST [2] = molecular target: T2, P224-ST (Photobacterium sp. JT-ISH-224, UniProt A8QYL1); test: as above; conditions: 1 mM, 50 μM AA-6'-sialyllactose, 100 mM sodium phosphate pH 6.0, 37°C, 2 h
T2 construct: gene pst6-224; residues 18-514 with catalytic domain, pColdII N-terminal His-tag (kept), codon-optimised gene, E. coli BL21, Ni-NTA
T2 sequence (A8QYL1 18-514): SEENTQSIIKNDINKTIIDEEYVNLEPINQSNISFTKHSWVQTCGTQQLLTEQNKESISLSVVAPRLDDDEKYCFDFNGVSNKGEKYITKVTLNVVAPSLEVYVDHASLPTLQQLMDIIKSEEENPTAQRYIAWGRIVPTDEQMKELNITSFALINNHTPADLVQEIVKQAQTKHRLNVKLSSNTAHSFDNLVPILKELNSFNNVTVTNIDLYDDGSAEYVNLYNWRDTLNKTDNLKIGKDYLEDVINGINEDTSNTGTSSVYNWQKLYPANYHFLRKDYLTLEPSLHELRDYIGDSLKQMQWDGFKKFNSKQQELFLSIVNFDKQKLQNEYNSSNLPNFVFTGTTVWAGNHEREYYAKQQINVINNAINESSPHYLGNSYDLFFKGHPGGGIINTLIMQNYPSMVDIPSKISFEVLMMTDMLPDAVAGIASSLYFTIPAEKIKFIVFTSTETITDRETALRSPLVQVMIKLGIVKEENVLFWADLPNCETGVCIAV

P145-ST [3] = molecular target: T3, P145-ST (Photobacterium leiognathi, UniProt A8R0T5); test: as above; conditions: 50 μM AA-6'-sialyllactose, 100 mM sodium phosphate pH 6.0, 37°C, 2 h
T3 construct: gene plst6; residues 16-497 with catalytic domain, pColdII N-terminal His-tag (kept), codon-optimised gene, E. coli BL21, Ni-NTA
T3 sequence (A8R0T5 16-497): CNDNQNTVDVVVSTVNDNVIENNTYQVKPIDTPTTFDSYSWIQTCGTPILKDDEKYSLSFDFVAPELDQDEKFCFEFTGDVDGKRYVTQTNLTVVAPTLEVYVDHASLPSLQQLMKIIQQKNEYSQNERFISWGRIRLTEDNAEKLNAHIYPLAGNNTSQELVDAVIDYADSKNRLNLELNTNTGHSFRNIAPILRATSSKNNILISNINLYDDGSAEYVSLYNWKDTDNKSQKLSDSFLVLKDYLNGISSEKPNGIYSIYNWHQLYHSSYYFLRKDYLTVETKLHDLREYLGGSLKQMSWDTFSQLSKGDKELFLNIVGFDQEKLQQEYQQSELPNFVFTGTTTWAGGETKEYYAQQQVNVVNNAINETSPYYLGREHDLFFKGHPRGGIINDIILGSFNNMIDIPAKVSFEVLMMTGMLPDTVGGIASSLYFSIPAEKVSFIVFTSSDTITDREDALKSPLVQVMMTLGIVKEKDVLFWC

P145-ST [4] = molecular target: T3, P145-ST; test: as above; conditions: inhibitor of sialidase activity, 0.01-10 mM; 50 μM AA-6'-sialyllactose, 100 mM sodium phosphate pH 6.0, 37°C, 2 h
P145-ST [5] = molecular target: T3, P145-ST; test: HPLC of sialylated AA-glycans, Michaelis-Menten fit; conditions: sialyltransferase; 0.5 mM CMP-Neu5Ac, 100 mM Tris-HCl pH 8.0, 30°C, 5 min; labelled compound; read-out: apparent Km
Text: HPLC of sialylated AA-glycans, Michaelis-Menten fit on P145-ST | The apparent Km values of Pd-, P224-, and P145-ST for G2-AA substrate are […]

P224-ST [6] = molecular target: T2, P224-ST; test: as above; conditions: sialyltransferase; 0.5 mM CMP-Neu5Ac, 100 mM Tris-HCl pH 8.0, 30°C, 5 min; labelled compound; read-out: apparent Km
Text: HPLC of sialylated AA-glycans, Michaelis-Menten fit on P224-ST | The apparent Km values of Pd-, P224-, and P145-ST for G2-AA substrate are […]

Pd-ST [7] = molecular target: T1, Pd-ST; test: as above; conditions: sialyltransferase; 0.5 mM CMP-Neu5Ac, 100 mM Tris-HCl pH 8.0, 30°C, 5 min; labelled compound; read-out: apparent Km
[8] = activator of sialidase activity
[9] = inhibitor of sialidase activity

SMILES	HPLC of AA-lactose released from AA-6'-sialyllactose (sialidase activity) (P145-ST [4])	HPLC of AA-lactose released from AA-6'-sialyllactose (sialidase activity) (Pd-ST [1]; [9])	HPLC of AA-lactose released from AA-6'-sialyllactose (sialidase activity) (P224-ST [2]; [9])	also measured
Nc1ccn([C@@H]2O[C@H](COP(=O)(O)O)[C@@H](O)[C@H]2O)c(=O)n1 [CMP]	–	–	–	HPLC of AA-lactose released from AA-6'-sialyllactose (sialidase activity) (Pd-ST [1]; [8]): the addition of CMP increased the sialidase activity; HPLC of AA-lactose released from AA-6'-sialyllactose (sialidase activity) (P224-ST [2]; [8]): the addition of CMP increased the sialidase activity; % lactose formed at 10 mM (P145-ST [3]; [8]): 43%
Nc1ccn([C@@H]2O[C@H](CO)[C@@H](O)[C@H]2O)c(=O)n1 [cytidine]	cytidine appeared to inhibit sialidase activity in an on-and-off mode	all other tested nucleotides including CDP, CTP, and cytidine showed decreasing effects	all other tested nucleotides including CDP, CTP, and cytidine showed decreasing effects	–
Nc1ccn([C@@H]2O[C@H](COP(=O)(O)OP(=O)(O)OP(=O)(O)O)[C@@H](O)[C@H]2O)c(=O)n1 [CTP]	–	all other tested nucleotides including CDP, CTP, and cytidine showed decreasing effects	all other tested nucleotides including CDP, CTP, and cytidine showed decreasing effects	% lactose formed at 10 mM (P145-ST [3]; [9]): 2%
CC(=O)N[C@H]1[C@H](O[C@@H]([C@H](O)[C@H](CNc2ccccc2C(=O)O)NC(C)=O)[C@H](O)CO)O[C@H](CO)[C@@H](O[C@@H]2O[C@H](CO[C@H]3O[C@H](CO)[C@@H](O)[C@H](O)[C@@H]3O[C@@H]3O[C@H](CO)[C@@H](O[C@@H]4O[C@H](CO)[C@H](O)[C@H](O)[C@H]4O)[C@H](O)[C@H]3NC(C)=O)[C@@H](O)[C@H](O[C@H]3O[C@H](CO)[C@@H](O)[C@H](O)[C@@H]3O[C@@H]3O[C@H](CO)[C@@H](O[C@@H]4O[C@H](CO)[C@H](O)[C@H](O)[C@H]4O)[C@H](O)[C@H]3NC(C)=O)[C@@H]2O)[C@@H]1O [G2-AA, AA-labeled G2 glycan]	–	–	–	Km (P145-ST [5]): 27.8 ± 5.8 µM; Km (P224-ST [6]): 39.2 ± 4.7 µM; Km (Pd-ST [7]): 36.1 ± 4.9 µM
Nc1ccn([C@@H]2O[C@H](COP(=O)(O)OP(=O)(O)O)[C@@H](O)[C@H]2O)c(=O)n1 [CDP]	CTP and CDP inhibited sialidase activity in a concentration-dependent manner	all other tested nucleotides including CDP, CTP, and cytidine showed decreasing effects	all other tested nucleotides including CDP, CTP, and cytidine showed decreasing effects	–
